Assay results taken from patent publication US20230148600A1, “PESTICIDALLY ACTIVE THIOPHENE DERIVATIVES” (SYNGENTA PARTICIPATIONS AG, priority 2017, published 2023).

How the values were obtained:
Type in all cases: in vivo
[1] = system: Plutella Xylostella (Diamond Back Moth); experiment: Plutella xylostella (diamond back moth) feeding/contact activity; details: 120 h, application rate 200 ppm, artificial diet treated by pipetting, L2 larvae, assessed 5 days after infestation
Experimental: Plutella Xylostella (Diamond Back Moth) Feeding/Contact Activity
24-well microtiter plates with artificial diet were treated with aqueous test solutions prepared from 10 ′000 ppm DMSO stock solutions by pipetting. After drying, the plates were infested with L2 larvae (10 to 15 per well). The samples were assessed for mortality 5 days after infestation.

[2] = system: Myzus Persicae (Green Peach Aphid); experiment: Myzus persicae (green peach aphid) feeding/contact activity; details: foliar, 144 h, application rate 200 ppm, sunflower leaf discs sprayed, aphid population of mixed ages, assessed 6 days after infestation
Experimental: Myzus Persicae (Green Peach Aphid) Feeding/Contact Activity
Sunflower leaf discs were placed onto agar in a 24-well microtiter plate and sprayed with aqueous test solutions prepared from 10 ′000 ppm DMSO stock solutions. After drying, the leaf discs were infested with an aphid population of mixed ages. The samples were assessed for mortality 6 days after infestation.

[3] = system: Spodoptera Littoralis (Egyptian Cotton Leaf Worm); experiment: Spodoptera littoralis (Egyptian cotton leaf worm) feeding/contact activity; details: foliar, 72 h, application rate 200 ppm, cotton leaf discs sprayed, L1 larvae, assessed 3 days after infestation
Experimental: Spodoptera Littoralis (Egyptian Cotton Leaf Worm) Feeding/Contact Activity
Cotton leaf discs were placed onto agar in 24-well microtiter plates and sprayed with aqueous test solutions prepared from 10 ′000 ppm DMSO stock solutions. After drying the leaf discs were infested with five L1 larvae. The samples were assessed for mortality 3 days after infestation.

[4] = system: Euschistus Heros (Neotropical BROWN Stink Bug); experiment: Euschistus heros (neotropical brown stink bug) feeding/contact activity; details: 120 h, application rate 200 ppm, soybean leaves sprayed, N2 nymphs, assessed 5 days after infestation
Experimental: Euschistus Heros (Neotropical BROWN Stink Bug) Feeding/Contact Activity
Soybean leaves on agar in 24-well microtiter plates were sprayed with aqueous test solutions prepared from 10 ′000 ppm DMSO stock solutions. After drying the leaves were infested with N2 nymphs. The samples were assessed for mortality 5 days after infestation.

[5] = system: Tetranychus Urticae (Two-Spotted Spider Mite); experiment: Tetranychus urticae (two-spotted spider mite) feeding/contact activity; details: foliar, 192 h, application rate 200 ppm, bean leaf discs sprayed, mite population of mixed ages, assessed 8 days after infestation, read-out: mortality on mixed population (mobile stages)
Experimental: Tetranychus Urticae (Two-Spotted Spider Mite) Feeding/Contact Activity
Bean leaf discs on agar in 24-well microtiter plates were sprayed with aqueous test solutions prepared from 10 ′000 ppm DMSO stock solutions. After drying the leaf discs were infested with a mite population of mixed ages. The samples were assessed for mortality on mixed population (mobile stages) 8 days after infestation.

[6] = system: Diabrotica Balteata (Corn Root Worm); experiment: Diabrotica balteata (corn root worm) mortality on sprayed maize sprouts; details: 96 h, application rate 200 ppm, L2 larvae, assessed 4 days after infestation
Experimental: Diabrotica Balteata (Corn Root Worm)
Maize sprouts placed onto an agar layer in 24-well microtiter plates were treated with aqueous test solutions prepared from 10 ′000 ppm DMSO stock solutions by spraying. After drying, the plates were infested with L2 larvae (6 to 10 per well). The samples were assessed for mortality 4 days after infestation.

[7] = system: Thrips Tabaci (Onion Thrips); experiment: Thrips tabaci (onion thrips) feeding/contact activity; details: foliar, 144 h, application rate 200 ppm, sunflower leaf discs sprayed, thrips population of mixed ages, assessed 6 days after infestation
Experimental: Thrips Tabaci (Onion Thrips) Feeding/Contact Activity
Sunflower leaf discs were placed on agar in 24-well microtiter plates and sprayed with aqueous test solutions prepared from 10 ′000 ppm DMSO stock solutions. After drying the leaf discs were infested with a thrips population of mixed ages. The samples were assessed for mortality 6 days after infestation.

Measured: mortality at 200 ppm

N#Cc1sc(-c2cnn(-c3ccc(C(F)(C(F)(F)F)C(F)(F)F)cc3Cl)c2)cc1C(=O)NC1CC1 [Example 8, 5-[1-[2-chloro-4-[1,2,2,2-tetrafluoro-1-(trifluoromethyl)ethyl]phenyl]pyrazol-4-yl]-2-cyano-N-cyclopropyl-thiophene-3-carboxamide]
not listed: [6] | [7]
≥ 80%: all other assays above

Cc1cc(C(F)(C(F)(F)F)C(F)(F)F)cc(C)c1-n1cc(-c2cc(C(=O)NC3CC3)c(C#N)s2)cn1 [Example 5, 2-cyano-N-cyclopropyl-5-[1-[2,6-dimethyl-4-[1,2,2,2-tetrafluoro-1-(trifluoromethyl)ethyl]phenyl]pyrazol-4-yl]thiophene-3-carboxamide]
not listed: [6] | [7]
≥ 80%: all other assays above

CCN(C(=O)c1cc(-c2cn(-c3c(Cl)cc(C(F)(C(F)(F)F)C(F)(F)F)cc3Cl)nn2)sc1C#N)C1CC1 [Example 11, 2-cyano-N-cyclopropyl-5-[1-[2,6-dichloro-4-[1,2,2,2-tetrafluoro-1-(trifluoromethyl)ethyl]phenyl]triazol-4-yl]-N-ethyl-thiophene-3-carboxamide]
not listed: [2] | [4]
≥ 80%: all other assays above

O=C(NC1CC1)c1cc(-c2cnn(-c3c(Cl)cc(C(F)(C(F)(F)F)C(F)(F)F)cc3Cl)c2)sc1Cl [Example 2, 2-chloro-N-cyclopropyl-5-[1-[2,6-dichloro-4-[1,2,2,2-tetrafluoro-1-(trifluoromethyl)ethyl]phenyl]pyrazol-4-yl]thiophene-3-carboxamide]
≥ 80%: all assays above

N#CC1(NC(=O)c2cc(-c3cnn(-c4c(Cl)cc(C(F)(C(F)(F)F)C(F)(F)F)cc4Cl)c3)sc2Cl)CC1 [Example 4, 2-chloro-N-(1-cyanocyclopropyl)-5-[1-[2,6-dichloro-4-[1,2,2,2-tetrafluoro-1-(trifluoromethyl)ethyl]phenyl]pyrazol-4-yl]thiophene-3-carboxamide]
≥ 80%: all assays above

CCN(C(=O)c1cc(-c2cn(-c3c(Cl)cc(C(F)(C(F)(F)F)C(F)(F)F)cc3Cl)nn2)sc1Cl)C1(C#N)CC1 [Example 14, 2-chloro-N-(1-cyanocyclopropyl)-5-[1-[2,6-dichloro-4-[1,2,2,2-tetrafluoro-1-(trifluoromethyl)ethyl]phenyl]triazol-4-yl]-N-ethyl-thiophene-3-carboxamide]
≥ 80%: [1] | [6] | [7] | [3]

N#Cc1sc(-c2cn(-c3c(Cl)cc(C(F)(C(F)(F)F)C(F)(F)F)cc3Cl)nn2)cc1C(=O)NC1CC1 [Example 13, 2-cyano-N-cyclopropyl-5-[1-[2,6-dichloro-4-[1,2,2,2-tetrafluoro-1-(trifluoromethyl)ethyl]phenyl]triazol-4-yl]thiophene-3-carboxamide]
≥ 80%: [1] | [6] | [7] | [3]

Cc1cc(C(F)(C(F)(F)F)C(F)(F)F)cc(C)c1-n1cc(-c2cc(C(=O)NC3(C#N)CC3)c(Cl)s2)cn1 [Example 10, 2-chloro-N-(1-cyanocyclopropyl)-5-[1-[2,6-dimethyl-4-[1,2,2,2-tetrafluoro-1-(trifluoromethyl)ethyl]phenyl]pyrazol-4-yl]thiophene-3-carboxamide]
not listed: [2]
≥ 80%: all other assays above

CN(C(=O)c1cc(-c2cn(-c3c(Cl)cc(C(F)(C(F)(F)F)C(F)(F)F)cc3Cl)nn2)sc1Cl)C1(C#N)CC1 [Example 15, 2-chloro-N-(1-cyanocyclopropyl)-5-[1-[2,6-dichloro-4-[1,2,2,2-tetrafluoro-1-(trifluoromethyl)ethyl]phenyl]triazol-4-yl]-N-methyl-thiophene-3-carboxamide]
≥ 80%: [1] | [6] | [7] | [3]

N#CC1(NC(=O)c2cc(-c3cn(-c4c(Cl)cc(C(F)(C(F)(F)F)C(F)(F)F)cc4Cl)nn3)sc2Cl)CC1 [Example 16, 2-chloro-N-(1-cyanocyclopropyl)-5-[1-[2,6-dichloro-4-[1,2,2,2-tetrafluoro-1-(trifluoromethyl)ethyl]phenyl]triazol-4-yl]thiophene-3-carboxamide]
≥ 80%: [7] | [3]

N#CC1(NC(=O)c2cc(-c3cnn(-c4ccc(C(F)(C(F)(F)F)C(F)(F)F)cc4Cl)c3)sc2Cl)CC1 [Example 6, 2-chloro-5-[1-[2-chloro-4-[1,2,2,2-tetrafluoro-1-(trifluoromethyl)ethyl]phenyl]pyrazol-4-yl]-N-(1-cyanocyclopropyl)thiophene-3-carboxamide]
≥ 80%: [1] | [3] | [4] | [5]

CN(C(=O)c1cc(-c2cn(-c3c(Cl)cc(C(F)(C(F)(F)F)C(F)(F)F)cc3Cl)nn2)sc1C#N)C1CC1 [Example 12, 2-cyano-N-cyclopropyl-5-[1-[2,6-dichloro-4-[1,2,2,2-tetrafluoro-1-(trifluoromethyl)ethyl]phenyl]triazol-4-yl]-N-methyl-thiophene-3-carboxamide]
not listed: [2]
≥ 80%: all other assays above

N#CC1(NC(=O)c2cc(-c3cnn(-c4c(Cl)cc(C(F)(C(F)(F)F)C(F)(F)F)cc4Br)c3)sc2Cl)CC1 [Example 7, 5-[1-[2-bromo-6-chloro-4-[1,2,2,2-tetrafluoro-1-(trifluoromethyl)ethyl]phenyl]pyrazol-4-yl]-2-chloro-N-(1-cyanocyclopropyl)thiophene-3-carboxamide]
≥ 80%: [1] | [3] | [4] | [5]

N#Cc1sc(-c2cnn(-c3c(Cl)cc(C(F)(C(F)(F)F)C(F)(F)F)cc3Cl)c2)cc1C(=O)NC1(C#N)CC1 [Example 3, 2-cyano-N-(1-cyanocyclopropyl)-5-[1-[2,6-dichloro-4-[1,2,2,2-tetrafluoro-1-(trifluoromethyl)ethyl]phenyl]pyrazol-4-yl]thiophene-3-carboxamide]
not listed: [2]
≥ 80%: all other assays above
